Results as given in patent US9950992B2, “Water soluble haloanilide calcium-release calcium channel inhibitory compounds and methods to control bone erosion and inflammation associated with arthritides” (West Virginia University, priority 2016, dated 2018).
Entries after “also recorded” stand apart in the source; their conditions may differ. Where two headings read alike, the source gives them in different places.

Assays:
CIA = settings: 10 mg/kg, cited from earlier work
TRPM4 = TRPM4 (Homo sapiens, UniProt Q8TD43); settings: cited from earlier work
[1] = Water solubility / hydrophobicity; assay type: physicochemical
[2] = test system: serum inflammatory cytokines; assay: Serum analysis for cytokines in CIA mice (V-PLEX panels); assay type: in vivo, mouse
Description: Heart blood at sacrifice, 40 days, was used for analysis. Plasma was separated by centrifiigation and frozen in aliquots at −20° C. until used. Production of anti-CII antibodies was evaluated by ELISA (Rheumera, Astarte Biologies, Redmond, Wash.). Production of cytokines was evaluated using V-PLEX panels in 96-well plates (Meso Scale Discovery, Rockville, Md.).

[3] = humans, cited from earlier work
[4] = test system: collagen-induced arthritis (CIA); assay: Histology of H&E stained hind paw sections in CIA mice, blinded score; assay type: in vivo, mouse
Description: Male DBA/1 mice were used, from Harlan Laboratories, Frederick Md. […] Briefly, type II collagen (CII) was injected in complete Freund's adjuvant at 100 μg per animal (˜4 μg/kg) at day 1 and, after 21 days, a booster dose of 100 μg C II in Freund's incomplete adjuvant. […] Mice were monitored for arthritis and scored in a blinded manner. Swelling of paws was be graded on scale from 0 to 4 indicating number of swollen digits. All paws were evaluated, so that the maximal arthritic index per mouse was 16. Additionally, hind paw swelling was measured using digital calipers on day 0, and each day on days 23-40. Analysis of the bones and joints for arthritis was done on H&E stained sections of hind paws, by blinded observation. This scored synovial expansion and inflammation, joint damage including pannus, and bone degradation, each on a scale of 0-3, with maximum score of 9. […] For histological analysis, two paws from each animal were analyzed separately and blindly, and are calculated as two specimens per animal; however, if averages are used with n=animal number, there was no effect on differences (not shown).
Hind paws of animals were decalcified, paraffin embedded, cut, and stained with hematoxylin and eosin (FIGS. 2A-C). […] Therefore, blinded qualitative grading was used. […]

[5] = test system: collagen-induced arthritis (CIA); assay: Micro-computed tomography and morphometry of paws in CIA mice; assay type: in vivo, mouse; settings: high dose CIA/DCPA (21 mg)
Description: Analysis by micro-computed tomography was as described (14). In brief, paws fixed in Millonig's solution were scanned on a Viva CT40 instrument (Scanco, Bassersdorf, Switzerland) with three-dimensional reconstruction by the manufacturer's instrument-specific software. The scan section increment was 20 μm; 3-D reconstruction used a density cutoff of 211 mg/cm^3. Analysis of trabecular thickness and trabecular spacing used the plate model.

[6] = test system: human or murine osteoclasts; settings: earlier study (ref 5), cited from earlier work
[7] = General health of treated CIA mice (weight, activity); assay type: in vivo, mouse; settings: about three weeks of DCPA
Description: Male DBA/1 mice were used, from Harlan Laboratories, Frederick Md. […] Briefly, type II collagen (CII) was injected in complete Freund's adjuvant at 100 μg per animal (˜4 μg/kg) at day 1 and, after 21 days, a booster dose of 100 μg C II in Freund's incomplete adjuvant. Inflammation was apparent 4-8 days after the second dose, in 80% of treated joints. […] Mice were monitored for arthritis and scored in a blinded manner. Swelling of paws was be graded on scale from 0 to 4 indicating number of swollen digits. All paws were evaluated, so that the maximal arthritic index per mouse was 16. Additionally, hind paw swelling was measured using digital calipers on day 0, and each day on days 23-40. Analysis of the bones and joints for arthritis was done on H&E stained sections of hind paws, by blinded observation. This scored synovial expansion and inflammation, joint damage including pannus, and bone degradation, each on a scale of 0-3, with maximum score of 9. […] For histological analysis, two paws from each animal were analyzed separately and blindly, and are calculated as two specimens per animal; however, if averages are used with n=animal number, there was no effect on differences (not shown).

[8] = target: CRAC channel (STIM1/Orail) (Homo sapiens, UniProt Q96D31); settings: by destabilizing STIM1/Orail interaction; Zhou et al., 2011; cited from earlier work
[9] = test system: osteoclasts and CD3 T cells in tissue sections; assay: Antibody labeling of sections (anti-ATPa3/TCIRG osteoclasts, anti-CD3 T cells) in CIA mice; assay type: in vivo, mouse; settings: high dose CIA/DCPA relative to CIA/placebo
Description: Antibodies used were, for TCIRGI, mouse monoclonal (clone 6H3) antibody (Sigma-Aldrich) at 1:100 dilution. For CD3, anti-CD3 mouse monoclonal antibody (PC3/188A) against synthetic peptide spanning amino acids 156-168 of the cytoplasmic domain of human CD3-ε chain was used, at 1:100 dilution. Briefly, sections were blocked in PBS with 2% hydrogen peroxide for 5 minutes and then in PBS with 2% BSA for two hours, then reacted overnight with antibodies at indicated concentrations in PBS with 0.01% tween 20, and after washing with biotinylated anti-mouse at 1:1000 dilution. Then streptavidin-horseradish peroxidase, and diaminobenzidine substrate were added. Hematoxylin and eosin counterstain was use to show tissue features. Imaging used a Nikon TE2000 inverted microscope, with 14-bit 2048×2048 pixel monochrome CCD and RGB filters to reconstruct color (Spot, Sterling Heights, Mich.).

[10] = test system: collagen-induced arthritis (CIA); assay: Collagen-induced arthritis (CIA) in mice, blinded arthritic index and paw swelling; assay type: in vivo, mouse; settings: DCPA 21 mg/kg/day
Description: Effects on swelling, inflammatory cell invasion in joints, serum cytokines and bone erosion were measured.
Male DBA/1 mice were used, from Harlan Laboratories, Frederick Md. […] Briefly, type II collagen (CII) was injected in complete Freund's adjuvant at 100 μg per animal (˜4 μg/kg) at day 1 and, after 21 days, a booster dose of 100 μg C II in Freund's incomplete adjuvant. […] Mice were monitored for arthritis and scored in a blinded manner. Swelling of paws was be graded on scale from 0 to 4 indicating number of swollen digits. All paws were evaluated, so that the maximal arthritic index per mouse was 16. Additionally, hind paw swelling was measured using digital calipers on day 0, and each day on days 23-40. Analysis of the bones and joints for arthritis was done on H&E stained sections of hind paws, by blinded observation. This scored synovial expansion and inflammation, joint damage including pannus, and bone degradation, each on a scale of 0-3, with maximum score of 9.

OCL formation = assay: OCL (osteoclast) formation assay; assay type: cell-based

TRPM4, sequence (Q8TD43 whole entry, species assumed): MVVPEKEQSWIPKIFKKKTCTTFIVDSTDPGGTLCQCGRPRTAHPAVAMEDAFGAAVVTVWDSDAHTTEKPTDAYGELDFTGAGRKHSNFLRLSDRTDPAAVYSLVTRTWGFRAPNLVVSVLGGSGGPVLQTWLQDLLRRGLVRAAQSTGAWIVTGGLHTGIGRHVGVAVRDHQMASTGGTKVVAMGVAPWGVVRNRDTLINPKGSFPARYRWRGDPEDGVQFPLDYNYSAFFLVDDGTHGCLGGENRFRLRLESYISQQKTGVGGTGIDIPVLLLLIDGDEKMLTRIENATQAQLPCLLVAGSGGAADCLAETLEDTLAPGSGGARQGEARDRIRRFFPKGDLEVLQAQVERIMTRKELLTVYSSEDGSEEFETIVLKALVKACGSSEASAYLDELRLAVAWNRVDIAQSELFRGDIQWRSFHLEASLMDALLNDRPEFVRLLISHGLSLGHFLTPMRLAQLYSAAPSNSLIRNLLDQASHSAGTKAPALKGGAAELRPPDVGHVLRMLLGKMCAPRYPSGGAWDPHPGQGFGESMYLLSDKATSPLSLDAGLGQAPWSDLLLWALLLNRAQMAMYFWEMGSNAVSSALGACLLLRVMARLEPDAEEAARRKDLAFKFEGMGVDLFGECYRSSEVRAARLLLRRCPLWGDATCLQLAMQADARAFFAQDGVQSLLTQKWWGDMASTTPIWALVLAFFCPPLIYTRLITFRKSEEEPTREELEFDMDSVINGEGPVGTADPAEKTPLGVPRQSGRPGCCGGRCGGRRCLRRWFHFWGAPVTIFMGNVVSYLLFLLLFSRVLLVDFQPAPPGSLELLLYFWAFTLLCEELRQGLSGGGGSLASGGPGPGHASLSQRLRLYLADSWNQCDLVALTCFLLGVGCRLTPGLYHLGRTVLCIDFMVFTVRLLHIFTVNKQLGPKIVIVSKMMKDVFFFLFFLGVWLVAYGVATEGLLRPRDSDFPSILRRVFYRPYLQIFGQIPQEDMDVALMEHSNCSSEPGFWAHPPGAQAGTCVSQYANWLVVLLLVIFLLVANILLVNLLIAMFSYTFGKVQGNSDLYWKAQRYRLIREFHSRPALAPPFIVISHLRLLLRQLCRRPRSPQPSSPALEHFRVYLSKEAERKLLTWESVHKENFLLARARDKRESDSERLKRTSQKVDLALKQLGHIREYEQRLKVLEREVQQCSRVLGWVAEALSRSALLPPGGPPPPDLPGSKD
CRAC channel (STIM1/Orail), sequence (Q96D31 whole entry): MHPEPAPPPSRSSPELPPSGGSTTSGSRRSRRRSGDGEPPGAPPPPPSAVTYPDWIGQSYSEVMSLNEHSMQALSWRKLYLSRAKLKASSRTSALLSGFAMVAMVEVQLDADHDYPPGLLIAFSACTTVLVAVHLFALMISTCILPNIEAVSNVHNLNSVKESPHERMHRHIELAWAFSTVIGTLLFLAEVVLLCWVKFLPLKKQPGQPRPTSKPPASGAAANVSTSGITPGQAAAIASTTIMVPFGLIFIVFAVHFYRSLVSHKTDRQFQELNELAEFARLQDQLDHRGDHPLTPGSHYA

## Cc1nnsc1C(=O)Nc1ccc(-n2nc(C(F)(F)F)cc2C(F)(F)F)cc1 [BTP-2, 4-methy-4-[3,5-bis(trifluorometliyl)-1H-pyrazol-1-yl]-1,2,3-thiadiazole-5-carboxanilide]
CIA; 10 days after induction
  inflammatory cytokines IL1, IL6 and TNF-α: near-baseline levels
CIA
  effect on CIA: suppressed CIA
TRPM4
  concentration suppressing cytokines including 1L2 and calcium influx by TRPM4: low nanomolar concentrations

## O=C(O)CC(=O)Nc1ccc(Cl)c(Cl)c1 [DCOPA, 3-(3,4-dichloroanilino)-3-oxopropanoic acid]
[1]
  water solubility compared with DCPA: more water soluble compound than DCPA

## CCC(=O)Nc1ccc(Cl)c(Cl)c1 [DCPA, N-(3,4-dichlorophenyl)propanamide]
[2]; DCPA 21 mg/kg/day, day 40 serum, vs CIA/placebo
  effect on serum cytokines (TNF-α, IL-1, IL-6, CXCL1, IFN-γ): no effect; also recorded: did not affect
[2]; DCPA, serum of CIA mice
  effect on cytokine production of IL-12p70 or IL-10: did not significantly affect
[3]
  toxicity of intermittent exposure in mg/kg quantities: minimal apparent toxicity
[3]; massive doses
  dose that can cause fatal methemoglobinemia: 4000 to 5000 mg/kg
[4]; DCPA 21 mg/kg/day
  reduction of bone and cartilage damage in sections of animal feet: −50%
[4]; ankle bone of one animal, high dose CIA/DCPA (21 mg DCPA), 40 days, scale 0-9
  histological damage score: 4
[5]; p=0.03 vs CIA/placebo
  bone volume/total volume by micro-CT: statistically greater than CIA/placebo animals
[5]; sacrifice day 40
  bone density by micro-CT: indistinguishable from untreated controls
[6]
  osteoclast differentiation / formation in vitro: inhibits osteoclast formation in vitro
[6]; listed as 3,4-dichloropropionaniline
  osteoclast differentiation / formation in vitro: reduced differentiation of bone degrading osteoclasts
[7]
  adverse effects on animal weight or activity: no adverse effects
[8]
  CRAC channel activation: inhibits CRAC channel activation
[9]
  osteoclast surface area (ATPa3 labeling): large and statistically significant reduction
[10]
  overall swelling of joints: reduced by a similar amount
  time of maximal effect after collagen booster: 12 to 17 days

## CN(C(=O)CC(=O)O)c1ccc(Cl)c(Cl)c1 [N-MeDCOPA]
OCL formation; 100 μM
  inhibition of OCL formation: shows inhibition of OCL formation

## N-methyl-DCPA [N-MeDCPA]
OCL formation; OCL assay findings
  toxicity compared with DCPA: less toxic than DCPA
OCL formation; same doses as DCPA, took longer
  effect in OCL assay compared with DCPA: looked as good as DCPA
[1]
  hydrophobicity: very hydrophobic
